According to ChEMBL document CHEMBL1130545, “Synthesis and antimicrobial activities of 3-N-substituted-4,5-bis(3-indolyl)oxazol-2-ones” (1997):

Experiments:
Type in all cases: functional
Bacillus cereus = assay: The compound was tested in vitro for antimicrobial activity against gram-positive bacteria Bacillus cereus (ATCC 14579) by conventional paper disk; 7-8
Prescottella equi [1] = assay: The compound was tested in vitro for antimicrobial activity against gram-positive bacteria Corynebacterium equi (IFO 3720) by conventional paper disk; 7-8
Streptomyces chartreusis [2] = assay: The compound was tested in vitro for antimicrobial activity against […] bacteria Streptomyces chartreusis (NRRL 11407) by conventional paper disk; 9-10
Streptomyces chartreusis [3] = assay: The compound was tested in vitro for antimicrobial activity against […] bacteria Streptomyces chartreusis (NRRL 11407) by conventional paper disk; 7-8
Enterococcus faecalis = assay: The compound was tested in vitro for antimicrobial activity against gram-positive bacteria Enterococcus faecalis (ATCC 11700) by conventional paper disk; 7-8
Prescottella equi [4] = assay: The compound was tested in vitro for antimicrobial activity against gram-positive bacteria Corynebacterium equi (IFO 3720) by conventional paper disk; 9-10

Compound | Inhibition zone (Bacillus cereus) [mm] | Inhibition zone (Prescottella equi [1]) [mm] | Inhibition zone (Streptomyces chartreusis [2]) [mm] | Inhibition zone (Streptomyces chartreusis [3]) [mm] | Inhibition zone (Enterococcus faecalis) [mm] | Inhibition zone (Prescottella equi [4]) [mm]
CCCn1c(-c2c[nH]c3ccccc23)c(-c2c[nH]c3ccccc23)oc1=O | 7 | 7 | 9 |  |  | 
O=c1oc(-c2c[nH]c3ccccc23)c(-c2c[nH]c3ccccc23)n1Cc1ccccc1 | 7 | 7 |  | 7 |  | 
C[C@H](C(=O)O)n1c(-c2c[nH]c3ccccc23)c(-c2c[nH]c3ccccc23)oc1=O | 7 | 7 | 9 |  | 7 | 
C=CCn1c(-c2c[nH]c3ccccc23)c(-c2c[nH]c3ccccc23)oc1=O | 7 |  | 9 |  |  | 9
